Key:
[1] = target: T1, recombinant N-terminal GST-tagged human Rho kinase 1 (ROCK1, amino acids 1-535) (Homo sapiens, UniProt Q13464); assay: In vitro Rho kinase assay (luciferase-based ATP consumption), ROCK1; type: biochemical
T1 construct: ROCK1, amino acids 1-535, Invitrogen Inc., cat. #PV-3691; GST (N); purchased Invitrogen Inc. PV-3691
Method: (§1) Rho kinase biochemical assays described below depend on firefly luciferase-based, indirect measurement of total ATP consumption by the kinase following incubation with substrate and ATP. 25 μl of Rho kinase assay buffer (20 mM Tris-HCL [pH 7.5], 1 mM MgCl2, 0.4 mM CaCl2, 0.15 mM EGTA, 0.1 mg/ml bovine serum albumin) containing 0.82 μg/ml of recombinant N-terminal GST-tagged human Rho kinase 1 (ROCK1, amino acids 1-535, Invitrogen Inc., cat. #PV-3691) or recombinant N-terminal GST-tagged human Rho kinase 2 (ROCK2, amino acids 1-552, Invitrogen Inc., cat #PV3759), 100 μg/ml S6 peptide substrate (related to amino acids 218-249 of the human 40S ribosomal protein S6, and suitable for ROCK1 or ROCK2, e.g. Upstate/Millipore Inc., cat #12-420), and 3 µM ATP are dispensed to wells of a 384 multi-well opaque plate. The plate is centrifuged for 30 seconds at approximately 200×g. 240 nl of test compound in DMSO is dispensed to each well by passive pin transfer. The lag phase of this in vitro kinase reaction permits addition of compounds soon after the reaction initiates. The reaction is allowed to incubate at 30° C. for 2 hours. The assay plates are sealed and maintained in a humidified environment. After 2 hours, 25 μl of easyLite protein kinase assay reagent (Perkin-Elmer, Inc.) is dispensed. After an additional 10 minute incubation at room temperature (about 22° C.), luminescence activity is measured on a Molecular Devices Analyst multi-mode plate reader or other suitable plate reader. Kinase inhibition results in less ATP consumption, and therefore increased luminescence signal. Negative control activity is measured with DMSO lacking any test compound. The positive control is 2-methyl-1-(4-methylisoquinolin-5-ylsulfonyl)perhydro-1,4-diazepine hydrochloride (aka H-1152P, HCl salt). Efficacy is measured as a percentage of positive control activity. […] In some cases, kinase reactions and compound testing are performed in 1536 multi-well plates under similar conditions, with assay volumes appropriately scaled. The designated NT means the cited example was not tested.

[2] = target: T2, recombinant N-terminal GST-tagged human Rho kinase 2 (ROCK2, amino acids 1-552) (Homo sapiens, UniProt O75116); assay: In vitro Rho kinase assay (luciferase-based ATP consumption), ROCK2; type: biochemical
T2 construct: ROCK2, amino acids 1-552, Invitrogen Inc., cat #PV3759; GST (N); purchased Invitrogen Inc. PV3759
T2 sequence (O75116 1-552): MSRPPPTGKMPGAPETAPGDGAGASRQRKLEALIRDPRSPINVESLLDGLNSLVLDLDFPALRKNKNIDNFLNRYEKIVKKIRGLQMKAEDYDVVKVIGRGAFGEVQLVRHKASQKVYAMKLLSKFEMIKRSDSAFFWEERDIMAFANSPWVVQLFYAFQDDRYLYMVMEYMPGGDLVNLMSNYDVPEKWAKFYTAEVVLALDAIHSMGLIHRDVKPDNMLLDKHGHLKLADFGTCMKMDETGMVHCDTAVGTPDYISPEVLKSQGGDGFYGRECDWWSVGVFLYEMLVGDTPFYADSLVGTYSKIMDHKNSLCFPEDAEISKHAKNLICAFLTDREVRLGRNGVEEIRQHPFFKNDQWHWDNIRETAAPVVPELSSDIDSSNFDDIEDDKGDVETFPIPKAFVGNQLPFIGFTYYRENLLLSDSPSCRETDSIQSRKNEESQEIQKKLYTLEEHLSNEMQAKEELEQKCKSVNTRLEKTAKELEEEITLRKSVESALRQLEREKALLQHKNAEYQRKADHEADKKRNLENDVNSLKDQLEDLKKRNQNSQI
Method: as §1

T1 sequence (Q13464 1-535): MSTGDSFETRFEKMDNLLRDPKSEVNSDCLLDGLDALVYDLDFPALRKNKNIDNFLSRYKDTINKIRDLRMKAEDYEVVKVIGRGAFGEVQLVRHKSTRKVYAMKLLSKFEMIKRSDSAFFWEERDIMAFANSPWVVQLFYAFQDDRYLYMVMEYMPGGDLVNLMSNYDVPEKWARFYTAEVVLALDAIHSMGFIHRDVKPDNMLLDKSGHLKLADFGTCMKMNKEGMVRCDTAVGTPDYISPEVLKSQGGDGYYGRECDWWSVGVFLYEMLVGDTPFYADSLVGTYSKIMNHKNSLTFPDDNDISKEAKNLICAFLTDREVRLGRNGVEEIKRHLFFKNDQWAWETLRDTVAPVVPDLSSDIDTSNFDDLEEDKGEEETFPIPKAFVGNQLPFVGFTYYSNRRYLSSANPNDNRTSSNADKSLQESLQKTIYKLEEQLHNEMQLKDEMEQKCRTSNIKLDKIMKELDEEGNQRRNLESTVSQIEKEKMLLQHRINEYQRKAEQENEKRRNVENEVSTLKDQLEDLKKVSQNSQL

| Compound | IC50 [1] [µM] | IC50 [2] [µM] |
| --- | --- | --- |
| O=C(NCc1ncc(-c2ccncc2)s1)c1cccs1 [Example 1, N-((5-(pyridin-4-yl)thiazol-2-yl)methyl)thiophene-2-carboxamide] | > 5 | > 5 |
| O=C(NCc1nc(-c2ccncc2)no1)c1cccs1 [Example 2, N-((3-(pyridin-4-yl)-1,2,4-oxadiazol-5-yl)methyl)thiophene-2-carboxamide] | > 5 | > 5 |
| COc1cccc(C(=O)NCc2nc(-c3ccncc3)no2)c1 [Example 3, 3-methoxy-N-((3-(pyridin-4-yl)-1,2,4-oxadiazol-5-yl)methyl)benzamide] | > 5 | > 5 |
| COc1ccc(C(=O)NCc2nc(-c3ccncc3)no2)cc1 [Example 4, 4-methoxy-N-((3-(pyridin-4-yl)-1,2,4-oxadiazol-5-yl)methyl)benzamide] | > 5 | > 5 |
| O=C(NCc1nc(-c2ccncc2)c[nH]1)c1cccs1 [Example 5, N-((4-(pyridin-4-yl)-1H-imidazol-2-yl)methyl)thiophene-2-carboxamide] | < 5 | < 5 |
| O=C(NCc1nc(-c2ccncc2)co1)c1ccc(O)cc1O [Example 8, 2,4-dihydroxy-N-((4-(pyridin-4-yl)oxazol-2-yl)methyl)benzamide] | < 5 | < 5 |
| O=C(NCc1cc(-c2ccncc2)n[nH]1)c1ccc(O)cc1O [Example 9, 2,4-dihydroxy-N-((3-(pyridin-4-yl)-1H-pyrazol-5-yl)methyl)benzamide] | < 5 | < 5 |
| Cc1cccc(C(=O)NCc2cc(-c3ccncc3)n[nH]2)c1O [Example 10, 2-hydroxy-3-methyl-N-((3-(pyridin-4-yl)-1H-pyrazol-5-yl)methyl)benzamide] | < 5 | < 5 |
| NC(=O)c1cc(-c2ccncc2)n[nH]1 [Example 11, 3-(pyridin-4-yl)-1H-pyrazole-5-carboxamide] | > 5 | > 5 |
| O=C(NCc1c[nH]c(-c2ccncc2)n1)c1ccc(O)cc1O [Example 12, 2,4-dihydroxy-N-((2-(pyridin-4-yl)-1H-imidazol-4-yl)methyl)benzamide] | < 5 | < 5 |
| Cc1cccc(C(=O)NCc2c[nH]c(-c3ccncc3)n2)c1O [Example 13, 2-hydroxy-3-methyl-N-((2-(pyridin-4-yl)-1H-imidazol-4-yl)methyl)benzamide] | > 5 | > 5 |
| O=C(NCc1c[nH]c(-c2ccncc2)n1)c1cccs1 [Example 14] | > 5 | > 5 |
| O=C(NCc1nc(-c2ccncc2)n[nH]1)c1cccs1 [Example 16, N-((3-(pyridin-4-yl)-1H-1,2,4-triazol-5-yl)methyl)thiophene-2-carboxamide] | < 5 | < 5 |
| O=C(NCc1nc(-c2ccncc2)n[nH]1)c1ccsc1 [Example 17, N-((3-(pyridin-4-yl)-1H-1,2,4-triazol-5-yl)methyl)thiophene-3-carboxamide] | < 5 | < 5 |
| COc1cccc(C(=O)NCc2nc(-c3ccncc3)n[nH]2)c1 [Example 18, 3-methoxy-N-((3-(pyridin-4-yl)-1H-1,2,4-triazol-5-yl)methyl)benzamide] | > 5 | > 5 |
| COc1ccc(C(=O)NCc2nc(-c3ccncc3)n[nH]2)cc1 [Example 19, 4-methoxy-N-((3-(pyridin-4-yl)-1H-1,2,4-triazol-5-yl)methyl)benzamide] | < 5 | < 5 |
| O=C(NCc1nc(-c2ccncc2)n[nH]1)c1nccs1 [Example 20, N-((3-(pyridin-4-yl)-1H-1,2,4-triazol-5-yl)methyl) thiazole-2-carboxamide] | < 5 | < 5 |
| CS(=O)(=O)Nc1cccc(C(=O)NCc2nc(-c3ccncc3)n[nH]2)c1 [Example 21, 3-(methylsulfonamido)-N-((3-(pyridin-4-yl)-1H-1,2,4-triazol-5-yl)methyl)benzamide] | > 5 | > 5 |

| Compound | IC50 [1] [µM] | IC50 [2] [µM] |
| --- | --- | --- |
| COc1cccc(O)c1C(=O)NCc1nc(-c2ccncc2)n[nH]1 [Example 23, 2-hydroxy-6-methoxy-N-((3-(pyridin-4-yl)-1H-1,2,4-triazol-5-yl)methyl)benzamide] | < 5 | < 5 |
| COc1ccc(C(=O)NCc2nc(-c3ccncc3)n[nH]2)c(O)c1 [Example 24, 2-hydroxy-4-methoxy-N-((3-(pyridin-4-yl)-1H-1,2,4-triazol-5-yl)methyl)benzamide] | < 5 | < 5 |
| O=C(NCc1nc(-c2ccncc2)n[nH]1)c1ccccc1O [Example 25, 2-hydroxy-N-((3-(pyridin-4-yl)-1H-1,2,4-triazol-5-yl)methyl)benzamide] | < 5 | < 5 |
| O=C(NCc1nc(-c2ccncc2)n[nH]1)c1cccc(Cl)c1O [Example 26, 3-chloro-2-hydroxy-N-((3-(pyridin-4-yl)-1H-1,2,4-triazol-5-yl)methyl)benzamide] | < 5 | < 5 |
| Cc1ccc(C(=O)NCc2nc(-c3ccncc3)n[nH]2)c(O)c1 [Example 27, 2-hydroxy-4-methyl-N-((3-(pyridin-4-yl)-1H-1,2,4-triazol-5-yl)methyl) benzamide] | < 5 | < 5 |
| O=C(NCc1nc(-c2ccncc2)n[nH]1)c1ccc(O)cc1 [Example 28, 4-hydroxy-N-((3-(pyridin-4-yl)-1H-1,2,4-triazol-5-yl)methyl)benzamide] | < 5 | < 5 |
| CS(=O)(=O)Nc1ccccc1C(=O)NCc1nc(-c2ccncc2)n[nH]1 [Example 29, 2-(Methylsulfonamido)-N-((3-(pyridin-4-yl)-1H-1,2,4-triazol-5-yl)methyl)benzamide] | > 5 | > 5 |
| COC(=O)c1ccc(C(=O)NCc2nc(-c3ccncc3)n[nH]2)cc1 [Example 30, Methyl 4-((3-(pyridin-4-yl)-1H-1,2,4-triazol-5-yl)methylcarbamoyl)benzoate] | < 5 | < 5 |
| O=C(O)c1ccc(C(=O)NCc2nc(-c3ccncc3)n[nH]2)cc1 [Example 31, 4-((3-(Pyridin-4-yl)-1H-1,2,4-triazol-5-yl)methylcarbamoyl)benzoic acid] | > 5 | < 5 |
| Cc1c(Cl)ccc(S(=O)(=O)NCc2nc(-c3ccncc3)n[nH]2)c1O [Example 32, 4-Chloro-2-hydroxy-3-methyl-N-((3-(pyridin-4-yl)-1H-1,2,4-triazol-5-yl)methyl)benzenesulfonamide] | > 5 | > 5 |
| O=C(NCc1nc(-c2ccncc2)n[nH]1)c1n[nH]c2ccccc12 [Example 33, N-((3-(Pyridin-4-yl)-1H-1,2,4-triazol-5-yl)methyl)-1H-indazole-3-carboxamide] | > 5 | < 5 |
| COc1ccc(NC(=O)NCc2nc(-c3ccncc3)n[nH]2)c(OC)c1 [Example 34, 1-(2,4-Dimethoxyphenyl)-3-((3-(pyridin-4-yl)-1H-1,2,4-triazol-5-yl)methyl)urea] |  | > 5 |
| CC(C)(C)C(=O)Oc1ccc(C(=O)NCc2nc(-c3ccncc3)n[nH]2)c(OC(=O)C(C)(C)C)c1 [Example 37, 4-((3-(Pyridin-4-yl)-1H-1,2,4-triazol-5-yl)methylcarbamoyl)-1,3-phenylene bis(2,2-dimethylpropanoate)] | > 5 | > 5 |
| CC(C)(C)C(=O)Oc1ccc(C(=O)NCc2nc(-c3ccncc3)n[nH]2)cc1 [Example 38, 4-((3-(Pyridin-4-yl)-1H-1,2,4-triazol-5-yl)methylcarbamoyl)phenyl pivalate] | > 5 | > 5 |
| CC(C)(C)OC(=O)NC1CCN(C(=O)Cc2nc(-c3ccncc3)n[nH]2)C1 (stereo not drawn) [Example 60, tert-Butyl 1-(2-(3-(pyridin-4-yl)-1H-1,2,4-triazol-5-yl)acetyl)pyrrolidin-3-ylcarbamate] |  | > 5 |
| NC1CCN(C(=O)Cc2nc(-c3ccncc3)n[nH]2)C1 (stereo not drawn) [Example 61, 1-(3-Aminopyrrolidin-1-yl)-2-(3-(pyridin-4-yl)-1H-1,2,4-triazol-5-yl)ethanone] |  | > 5 |
| O=C(Nc1cccc2c(-c3ccncc3)n[nH]c12)c1cccs1 [Example 68, N-(3-(Pyridin-4-yl)-1H-indazol-7-yl)thiophene-2-carboxamide] |  | > 5 |

From US20080021217A1, “HETEROCYCLIC INHIBITORS OF RHO KINASE” (priority 2006, published 2008)
